{
  "source": "patent US20130005760A1",
  "about": "“HETEROCYCLIC COMPOUND HAVING AZOLE GROUP” (Toyama Chemical Co., Ltd., priority 2010, published 2013)",
  "key": {"[1]": {"test_system": "bone marrow polychromatic erythrocytes", "experiment": "In vivo micronucleus study in mice", "conditions": "male ICR mice, oral twice at 24 hour interval, bone marrow 24 hours after final administration, highest dose group with all animals alive", "experimental": "(§1) The compounds of Examples 2, 4 and 12 were used as test compounds.\nA test compound suspended in 0.5% methylcellulose was orally administered to male ICR mice (8 week-old, three animals in a group) twice at a 24 hour interval. To a control group, 0.5% methylcellulose was orally administered in a similar manner.\nAt 24 hours after the final administration, the mice in the highest dose group in which all the animals were alive were killed by exsanguination under ether anesthesia, and one thigh bone was collected from each animal. After cutting the collected thigh bone at the proximal end, bone marrow cells were washed out with fetal calf serum to a centrifuge tube using a disposable syringe, and after centrifugation (1000 rpm, 5 minutes, HITACHI 05PR-22), a part of the supernatant was discarded to obtain a suspension of bone marrow cells. This suspension was smeared on a slide glass, and then dried followed by methanol fixation to prepare a sample.\nThe sample was observed by acridine orange staining.\nThe sample of which frequency of MNPCE exceeds 0.5% was judged positive.\nFrequency of MNPCE (%)=(MNPCE number/Observed PCE number)×100"}, "HIV-1 (JRCSF) [2]": {"test_system": "HIV-1 (JRCSF)", "experiment": "Anti-HIV activity (Test Example 1-1): MaRBLE cells infected with HIV-1 (JRCSF), compound added 2 h after seeding, luciferase readout after 7 days", "type": "cell-based", "conditions": "Human immunodeficiency virus 1, 168 h, 7 days culture, firefly luciferase, virus growth rate, 4 parameter Logistic Model (XLfit 4)", "experimental": "(§2) This example was carried out by reference to Journal of Clinical Microbiology, 2007, Vol. 45, pages 477 to 487.\n(§3) An anti-HIV activity was evaluated using MaRBLE cells obtained by transfection of HPB-M(a) derived from human T-lymphocytes with a luciferase gene of which expressions were regulated by HIV-1 LTR and a CCR5 gene etc.\nThe MaRBLE cells were suspended in RPMI1640 containing 10% FCS (fetal calf serum) and penicillin/streptomycin. After infected with HIV-1 (JRCSF), the cells were seeded on a 96-well plate (1×10^5 cells/well). As a control group, the same number of uninfected cells were seeded.\nAfter incubating the plate under the condition of 37° C. and 5% CO2 for 2 hours, a fresh culture medium or a culture medium containing an appropriately diluted test compound was added to each well.\nAfter further culturing at 37° C. under 5% CO2 for 7 days, an intracellular luciferase activity was measured using Dual-Glo Luciferase assay system (Promega).\n(§4) The virus growth rate was calculated by the following equation.\n(§5) Virus growth rate (%)=(A/B)×100\n(§6) A=(Firefly luciferase activity in the well with the compound)−(Firefly luciferase activity of uninfected cells)\n(§7) B=(Firefly luciferase activity in the well without the compound)−(Firefly luciferase activity of uninfected cells)\nThe IC50 of the compound was calculated by applying virus growth rates of various concentrations to 4 parameter Logistic Model of curve-fitting software XLfit 4."}, "[3]": {"experiment": "Pharmacokinetic study in mice (oral administration)", "type": "in vivo", "conditions": "mouse, serum, 25 mg/kg, male ICR mice, suspension in 0.5% methylcellulose 2.5 mg/mL at 10 mL/kg, 12 hours after administration, HPLC, read-out: serum concentration of the test compound", "experimental": "The compounds of Examples 2, 4, 5, 12 and 16 were used as test compounds.\nA test compound suspended in 0.5% methylcellulose (2.5 mg/mL) was orally administered at 10 mL/kg to male ICR mice (6 week-old, three animals in a group). At 12 hours after the administration, the blood of the mice was collected, and the concentrations of the test compound in the serum were measured by HPLC."}, "[4]": {"experiment": "Single-dose oral toxicity study in mice", "type": "in vivo", "conditions": "male ICR mice, suspension in 0.5% methylcellulose, conditions observed on the next day", "experimental": "as §1\n10 mL/kg of a test compound suspended in 0.5% methylcellulose was orally administered to male ICR mice (6 week-old, one animal in a group).\nOn the next day after the administration, the conditions of the mice were observed."}, "HIV-1 (JRCSF) [5]": {"test_system": "HIV-1 (JRCSF)", "experiment": "Anti-HIV activity (Test Example 1-2): infected MaRBLE cells seeded on plate containing drug solution, luciferase readout after 7 days", "type": "cell-based", "conditions": "Human immunodeficiency virus 1, 168 h, MaRBLE cells infected with HIV-1 (JRCSF), 7 days culture, firefly luciferase, FORECAST linear regression (Excel)", "experimental": "as §2, §3\nA plate containing a drug solution was made by dispensing a fresh culture medium or an appropriately diluted test compound to a 96-well plate.\nMaRBLE cells were suspended in RPMI1640 containing 10% FCS (fetal calf serum) and penicillin/streptomycin. After infected with HIV-1 (JRCSF), the cells were seeded on the above-described plate containing a drug solution ([…] cells/well). As a control group, the same number of uninfected cells were seeded.\nAfter culturing at 37° C. under 5% CO2 for 7 days, an intracellular luciferase activity was measured using Dual-Glo Luciferase assay system (Promega).\nas §4, §5, §6, §7\nThe IC50 of the compound was calculated by plotting the concentration with the logarithm and by plotting the virus growth rate with a real number, using the FORECAST function (linear regression technique) of Microsoft Office Excel 2003."}},
  "data": [
    {"compound": "Cc1noc(C)c1-c1ccc2c(=O)cc(C)n(-c3cc(N)c(F)cc3F)c2c1", "note": "[Example 2, 1-(5-amino-2,4-difluorophenyl)-7-(3,5-dimethylisoxazol-4-yl)-2-methyl-1,4-dihydro-4-oxoquinoline]", "values": [
      {"measurement": "micronucleus test result (frequency of MNPCE exceeding 0.5% judged positive)", "setting": "[1]", "value": "negative"},
      {"measurement": "IC50", "setting": "HIV-1 (JRCSF) [2]", "value": 1.4, "unit": "nM"},
      {"measurement": "concentration at 12 h", "setting": "[3]", "value": "≥ 500", "unit": "ng/mL"},
      {"measurement": "dose at which the compound showed good safety (single oral dose)", "setting": "[4]", "value": 2000, "unit": "mg/kg"}
    ]},
    {"compound": "Cc1noc(C)c1-c1ccc2c(=O)cc(C)n(-c3cc(N)c(F)cc3F)c2n1", "note": "[Example 4, 1-(5-amino-2,4-difluorophenyl)-7-(3,5-dimethylisoxazol-4-yl)-2-methyl-1,4-dihydro-4-oxo-1,8-naphthyridine]", "values": [
      {"measurement": "micronucleus test result (frequency of MNPCE exceeding 0.5% judged positive)", "setting": "[1]", "value": "negative"},
      {"measurement": "IC50", "setting": "HIV-1 (JRCSF) [2]", "value": 0.38, "unit": "nM"},
      {"measurement": "concentration at 12 h", "setting": "[3]", "value": "≥ 500", "unit": "ng/mL"},
      {"measurement": "dose at which the compound showed good safety (single oral dose)", "setting": "[4]", "value": 750, "unit": "mg/kg"}
    ]},
    {"compound": "Cc1noc(C)c1-c1ccc2c(=O)cc(C)n(-c3cc(N)c(F)c(F)c3F)c2n1", "note": "[Example 12, 1-(5-amino-2,3,4-trifluorophenyl)-7-(3,5-dimethylisoxazol-4-yl)-2-methyl-1,4-dihydro-4-oxo-1,8-naphthyridine]", "values": [
      {"measurement": "micronucleus test result (frequency of MNPCE exceeding 0.5% judged positive)", "setting": "[1]", "value": "negative"},
      {"measurement": "concentration at 12 h", "setting": "[3]", "value": "≥ 500", "unit": "ng/mL"},
      {"measurement": "IC50", "setting": "HIV-1 (JRCSF) [5]", "value": 1.9, "unit": "nM"},
      {"measurement": "dose at which the compound showed good safety (single oral dose)", "setting": "[4]", "value": 1000, "unit": "mg/kg"}
    ]}
  ]
}
